Source: patent US10494368B2, “Pesticidally active tetracyclic derivatives with sulfur containing substituents” (Syngenta Participations AG, priority 2015, dated 2019)

Columns and labels:
Format in all cases: in vivo
[1] = system: Diabrotica Balteata (Corn Root Worm); assay: Diabrotica balteata on maize sprouts, spray; details: 96 h, application rate 200 ppm, L2 larvae on maize sprouts, 4 days after infestation, read-out: effect in at least one of the two categories (mortality or growth inhibition)
Description: Maize sprouts placed onto an agar layer in 24-well microtiter plates were treated with aqueous test solutions prepared from 10′000 ppm DMSO stock solutions by spraying. After drying, the plates were infested with L2 larvae (6 to 10 per well). The samples were assessed for mortality and growth inhibition in comparison to untreated samples 4 days after infestation.
(§1) The following compounds gave an effect of at least 80% in at least one of the two categories (mortality or growth inhibition) at an application rate of 200 ppm: […]

[2] = system: Myzus persicae (Green Peach Aphid); assay: Myzus persicae feeding/contact activity on sunflower leaf discs; details: foliar, 144 h, application rate 200 ppm, aphid population of mixed ages on sunflower leaf discs, 6 days after infestation
Description: Feeding/Contact activity Sunflower leaf discs were placed onto agar in a 24-well microtiter plate and sprayed with aqueous test solutions prepared from 10′000 ppm DMSO stock solutions. After drying, the leaf discs were infested with an aphid population of mixed ages. The samples were assessed for mortality 6 days after infestation.

[3] = system: Euschistus heros (Neotropical Brown Stink Bug); assay: Euschistus heros on soybean leaves, spray; details: 120 h, application rate 200 ppm, N2 nymphs on soybean leaves, 5 days after infestation, read-out: effect in at least one of the two categories (mortality or growth inhibition)
Description: Soybean leaves on agar in 24-well microtiter plates were sprayed with aqueous test solutions prepared from 10′000 ppm DMSO stock solutions. After drying the leaves were infested with N2 nymphs. The samples were assessed for mortality and growth inhibition in comparison to untreated samples 5 days after infestation.
as §1

[4] = system: Plutella xylostella (Diamond Back Moth); assay: Plutella xylostella on artificial diet; details: 120 h, application rate 200 ppm, L2 larvae on artificial diet, 5 days after infestation, read-out: effect in at least one of the two categories (mortality or growth inhibition)
Description: 24-well microtiter plates with artificial diet were treated with aqueous test solutions prepared from 10′000 ppm DMSO stock solutions by pipetting. After drying, the plates were infested with L2 larvae (10 to 15 per well). The samples were assessed for mortality and growth inhibition in comparison to untreated samples 5 days after infestation.
as §1

[5] = system: Spodoptera littoralis (Egyptian Cotton Leaf Worm); assay: Spodoptera littoralis on cotton leaf discs, spray; details: foliar, 72 h, application rate 200 ppm, L1 larvae on cotton leaf discs, 3 days after infestation
Description: Cotton leaf discs were placed onto agar in 24-well microtiter plates and sprayed with aqueous test solutions prepared from 10′000 ppm DMSO stock solutions. After drying the leaf discs were infested with five L1 larvae. The samples were assessed for mortality, anti-feeding effect, and growth inhibition in comparison to untreated samples 3 days after infestation. Control of Spodoptera littoralis by a test sample is given when at least one of the categories mortality, anti-feedant effect, and growth inhibition is higher than the untreated sample.

[6] = system: Bemisia tabaci (Cotton White Fly); assay: Bemisia tabaci feeding/contact activity on cotton leaf discs; details: foliar, 144 h, application rate 200 ppm, adult white flies on cotton leaf discs, 6 days after incubation
Description: Feeding/contact activity Cotton leaf discs were placed on agar in 24-well microtiter plates and sprayed with aqueous test solutions prepared from 10′000 ppm DMSO stock solutions. After drying the leaf discs were infested with adult white flies. The samples were checked for mortality 6 days after incubation.

[7] = system: Spodoptera littoralis (Egyptian Cotton Leaf Worm); assay: Spodoptera littoralis, uptake by lettuce roots from agar; details: 144 h, test rate 12.5 ppm, compound absorbed by lettuce roots, 6 days after infestation, read-out: effect in at least one of the three categories (mortality, anti-feeding, or growth inhibition)
Description: Test compounds were applied by pipette from 10′000 ppm DMSO stock solutions into 24-well plates and mixed with agar. Lettuce seeds were placed onto the agar and the multi well plate was closed by another plate which contained also agar. After 7 days the compound was absorbed by the roots and the lettuce grew into the lid plate. The lettuce leaves were then cut off into the lid plate. Spodoptera eggs were pipetted through a plastic stencil onto a humid gel blotting paper and the lid plate was closed with it. The samples were assessed for mortality, anti-feedant effect and growth inhibition in comparison to untreated samples 6 days after infestation.
The following compounds gave an effect of at least 80% in at least one of the three categories (mortality, anti-feeding, or growth inhibition) at a test rate of 12.5 ppm: A3, A4, A5, A6, A8, A10, B3, B4, B5 and C2.

[8] = system: Aedes aegypti (Yellow Fever Mosquito); assay: Aedes aegypti adult contact test on dried deposits; details: application rate 200 ppm in ethanol, adult females, after 48 h and/or 24 h
Description: Test solutions, at an application rate of 200 ppm in ethanol, were applied to 12 well tissue culture plates. Once the deposits were dry, five, two to five day old adult female Aedes aegypti were added to each well, and sustained with a 10% sucrose solution in a cotton wool plug. Assessment of knockdown was made one hour after introduction, and mortality was assessed at 24 and 48 hours after introduction.
The following compounds gave at least 80% control of Aedes aegypti after 48 h and/or 24 h: […]

CCSc1c(-c2nc3cc(C(F)(F)F)cnc3n2C)sc2ccccc12 [Compound A1, 2-(3-ethylsulfanylbenzothiophen-2-yl)-3-methyl-6-(trifluoromethyl)imidazo[4,5-b]pyridine]
≥ 80%: percent effect (mortality or growth inhibition) at 200 ppm [1] | mortality at 200 ppm [2]

CCS(=O)(=O)c1c(-c2nc3cc(C(F)(F)F)cnc3n2C)sc2ccccc12 [Compound A2, 2-(3-ethylsulfonylbenzothiophen-2-yl)-3-methyl-6-(trifluoromethyl)imidazo [4,5-b] pyridine]
≥ 80%: percent effect (mortality or growth inhibition) at 200 ppm [1] | percent effect (mortality or growth inhibition) at 200 ppm [3] | mortality at 200 ppm [2] | percent effect (mortality or growth inhibition) at 200 ppm [4] | percent control (mortality, anti-feedant effect or growth inhibition) at 200 ppm [5]

CCS(=O)(=O)c1c(-c2nc3cc(SC(F)(F)F)cnc3n2C)sc2cc(Br)ccc12 [Compound A4, 2-(6-bromo-3-ethylsulfonyl-benzothiophen-2-yl)-3-methyl-6-(trifluoromethylsulfanyl)imidazo[4,5-b]pyridine]
≥ 80%: mortality at 200 ppm [6] | percent effect (mortality or growth inhibition) at 200 ppm [1] | percent effect (mortality or growth inhibition) at 200 ppm [3] | mortality at 200 ppm [2] | percent effect (mortality or growth inhibition) at 200 ppm [4] | percent control (mortality, anti-feedant effect or growth inhibition) at 200 ppm [5] | percent effect (mortality, anti-feeding or growth inhibition) at 12.5 ppm [7] | pest or weed control at 200 ppm [8]

CCSc1c(-c2nc3cc(C(F)(F)F)cnc3n2C)sc2cc(C(F)(F)F)ccc12 [Compound A5]
≥ 80%: percent effect (mortality or growth inhibition) at 200 ppm [1] | percent effect (mortality or growth inhibition) at 200 ppm [3] | percent effect (mortality or growth inhibition) at 200 ppm [4] | percent control (mortality, anti-feedant effect or growth inhibition) at 200 ppm [5] | percent effect (mortality, anti-feeding or growth inhibition) at 12.5 ppm [7] | pest or weed control at 200 ppm [8]

CCS(=O)(=O)c1c(-c2nc3cc(C(F)(F)F)cnc3n2C)sc2cc(C(F)(F)F)ccc12 [Compound A6]
≥ 80%: mortality at 200 ppm [6] | percent effect (mortality or growth inhibition) at 200 ppm [1] | percent effect (mortality or growth inhibition) at 200 ppm [3] | mortality at 200 ppm [2] | percent effect (mortality or growth inhibition) at 200 ppm [4] | percent control (mortality, anti-feedant effect or growth inhibition) at 200 ppm [5] | percent effect (mortality, anti-feeding or growth inhibition) at 12.5 ppm [7] | pest or weed control at 200 ppm [8]

CCSc1c(-c2nc3cc(C(F)(F)F)cnc3n2C)sc2cc(Br)ccc12 [Compound A7, 2-(6-bromo-3-ethylsulfanyl-benzothiophen-2-yl)-3-methyl-6-(trifluoromethyl)imidazo[4,5-b]pyridine]
≥ 80%: percent effect (mortality or growth inhibition) at 200 ppm [1] | percent effect (mortality or growth inhibition) at 200 ppm [3] | percent effect (mortality or growth inhibition) at 200 ppm [4] | percent control (mortality, anti-feedant effect or growth inhibition) at 200 ppm [5] | pest or weed control at 200 ppm [8]

CCS(=O)(=O)c1c(-c2nc3cc(C(F)(F)F)cnc3n2C)sc2cc(Br)ccc12 [Compound A8, 2-(6-bromo-3-ethylsulfonyl-benzothiophen-2-yl)-3-methyl-6-(trifluoromethyl)imidazo[4,5-b]pyridine]
≥ 80%: mortality at 200 ppm [6] | percent effect (mortality or growth inhibition) at 200 ppm [1] | percent effect (mortality or growth inhibition) at 200 ppm [3] | mortality at 200 ppm [2] | percent effect (mortality or growth inhibition) at 200 ppm [4] | percent control (mortality, anti-feedant effect or growth inhibition) at 200 ppm [5] | percent effect (mortality, anti-feeding or growth inhibition) at 12.5 ppm [7] | pest or weed control at 200 ppm [8]

CCS(=O)(=O)c1c(-c2nc3cc(C(F)(F)F)cnc3n2C)sc2cc(-n3ccc(C(F)(F)F)n3)ccc12 [Compound A9, 2-[3-ethylsulfonyl-6-[3-(trifluoromethyl)pyrazol-1-yl]benzothiophen-2-yl]-3-methyl-6-(trifluoromethyl)imidazo[4,5-b]pyridine]
≥ 80%: percent effect (mortality or growth inhibition) at 200 ppm [1] | percent effect (mortality or growth inhibition) at 200 ppm [4] | percent control (mortality, anti-feedant effect or growth inhibition) at 200 ppm [5]

CCS(=O)(=O)c1c(-c2nc3cc(C(F)(F)F)cnc3n2C)sc2cc(SC(F)(F)F)ccc12 [Compound A10, 2-[3-ethylsulfonyl-6-(trifluoromethylsulfanyl)benzothiophen-2-yl]-3-methyl-6-(trifluoromethyl)imidazo[4,5-b]pyridine]
≥ 80%: percent effect (mortality or growth inhibition) at 200 ppm [1] | percent effect (mortality or growth inhibition) at 200 ppm [3] | mortality at 200 ppm [2] | percent effect (mortality or growth inhibition) at 200 ppm [4] | percent control (mortality, anti-feedant effect or growth inhibition) at 200 ppm [5] | percent effect (mortality, anti-feeding or growth inhibition) at 12.5 ppm [7] | pest or weed control at 200 ppm [8]

CCS(=O)(=O)c1c(-c2nc3cc(C(F)(F)F)cnc3n2C)sc2cc(C3CC3)ccc12 [Compound A11, 2-(6-cyclopropyl-3-ethylsulfonyl-benzothiophen-2-yl)-3-methyl-6-(trifluoromethyl)imidazo[4,5-b]pyridine]
≥ 80%: percent effect (mortality or growth inhibition) at 200 ppm [1] | percent effect (mortality or growth inhibition) at 200 ppm [3] | mortality at 200 ppm [2] | percent effect (mortality or growth inhibition) at 200 ppm [4] | percent control (mortality, anti-feedant effect or growth inhibition) at 200 ppm [5]

CCS(=O)(=O)c1c(-c2nc3cc(C(F)(F)F)cnc3n2C)sc2cc(C(F)(F)C(F)(F)F)ccc12 [Compound A12]
≥ 80%: percent effect (mortality or growth inhibition) at 200 ppm [1] | percent effect (mortality or growth inhibition) at 200 ppm [3] | percent effect (mortality or growth inhibition) at 200 ppm [4] | percent control (mortality, anti-feedant effect or growth inhibition) at 200 ppm [5] | pest or weed control at 200 ppm [8]

CCS(=O)(=O)c1c(-c2nc3cnc(C(F)(F)F)cc3n2C)sc2ccccc12 [Compound B2, 2-(3-ethylsulfonylbenzothiophen-2-yl)-1-methyl-6-(trifluoromethyl)imidazo[4,5-c]pyridine]
≥ 80%: percent effect (mortality or growth inhibition) at 200 ppm [1] | percent effect (mortality or growth inhibition) at 200 ppm [3] | mortality at 200 ppm [2] | percent effect (mortality or growth inhibition) at 200 ppm [4] | percent control (mortality, anti-feedant effect or growth inhibition) at 200 ppm [5]

CCS(=O)(=O)c1c(-c2nc3cc(C(F)(F)F)ncc3n2C)sc2cc(C(F)(F)F)ccc12 [Compound B4, 2-[3-ethylsulfonyl-6-(trifluoromethyl)benzothiophen-2-yl]-3-methyl-6-(trifluoromethyl) imidazo[4,5-c]pyridine]
≥ 80%: mortality at 200 ppm [6] | percent effect (mortality or growth inhibition) at 200 ppm [1] | percent effect (mortality or growth inhibition) at 200 ppm [3] | mortality at 200 ppm [2] | percent effect (mortality or growth inhibition) at 200 ppm [4] | percent control (mortality, anti-feedant effect or growth inhibition) at 200 ppm [5] | percent effect (mortality, anti-feeding or growth inhibition) at 12.5 ppm [7] | pest or weed control at 200 ppm [8]

CCSc1c(-c2nc3cc(C(F)(F)F)ccc3n2C)sc2cc(C(F)(F)F)ccc12 [Compound C1]
≥ 80%: percent effect (mortality or growth inhibition) at 200 ppm [1] | percent effect (mortality or growth inhibition) at 200 ppm [4] | percent control (mortality, anti-feedant effect or growth inhibition) at 200 ppm [5]

CCS(=O)(=O)c1c(-c2nc3cc(C(F)(F)F)ccc3n2C)sc2cc(C(F)(F)F)ccc12 [Compound C2]
≥ 80%: mortality at 200 ppm [6] | percent effect (mortality or growth inhibition) at 200 ppm [1] | percent effect (mortality or growth inhibition) at 200 ppm [4] | percent control (mortality, anti-feedant effect or growth inhibition) at 200 ppm [5] | percent effect (mortality, anti-feeding or growth inhibition) at 12.5 ppm [7] | pest or weed control at 200 ppm [8]
